Test results from PMC8998803, “Fragment-Based Discovery of AF9 YEATS Domain Inhibitors” (International Journal of Molecular Sciences, 2022).

Legend:
AF9 YEATS domain [1] = molecular target: T1, AF9 YEATS domain (Homo sapiens, UniProt P42568); test: NMR chemical shift perturbation titration of 15N-labeled AF9 YEATS domain; assay type: binding; details: for Kd: from dose-dependent chemical shift perturbations, ± fitting error; for LE: ligand efficiency, Table 1
T1 construct: DNA fragment encoding AF9 YEATS domain (residues 1–138) was amplified and cloned into the pET28a vector; made in house; host or cells: Escherichia coli BL21 (DE3)
T1 sequence (P42568 1-138): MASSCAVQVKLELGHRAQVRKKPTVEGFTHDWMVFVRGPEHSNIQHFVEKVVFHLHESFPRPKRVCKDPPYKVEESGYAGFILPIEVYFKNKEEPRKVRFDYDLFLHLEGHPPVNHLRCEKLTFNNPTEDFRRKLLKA
Excerpt: (§1) To further validate the results of ligand-observed fragment-based screening, we titrated these hits with the ^15N-labeled AF9 YEATS domain (Figure 1B). The backbone chemical shift assignment was retrieved from the literature. […] These residues were then mapped to the surface of the crystal structure of the AF9 YEATS domain in complex with H3K9ac (PDB code: 4TMP), which indicated the binding of these hits to the same pocket for acyl-lysine recognition (Figure 1D). The binding affinity of hit 2 was then determined by best fitting the dose-dependent CSPs of these residues (Figure 1E) at 0.07 ± 0.01 mM (fitting error was used henceforth unless specifically annotated). The affinity of hit 2 was further validated using isothermal titration calorimetry (ITC) (Figure 1F). The binding affinity of the other hits was determined using the same approach (Table 1). These four hits probably bound to the same pocket since they shared the same pharmacophore.
The ^15N-labeled AF9 YEATS domain was concentrated to 0.1 mM in phosphate buffered saline at pH 6.8. The HSQC spectra were acquired on the Agilent 500 MHz spectrometer at a ligand/protein molar ratio varying from 0 to 8.0. The dissociation constant Kd was best-fitted using the following equation assuming a 1:1 binding mode, Δδobs=ΔδmaxPt+Lt+Kd−Pt+Lt+Kd^2−4PtLt/2Pt where Pt and Lt represented the total concentrations of the protein and the ligand, respectively, and the Δδobs denoted the observed chemical shift changes relative to the free-form protein. Δδobs was defined as 1/2δH2+0.04δN2 , where δH and δN were the chemical shift changes in the ^1H and ^15N dimension, respectively. The maximum of the chemical shift perturbations Δδmax and the dissociation constant Kd were best-fitted from the dose-dependent chemical shift changes

AF9 YEATS domain [2] = molecular target: T1, AF9 YEATS domain; test: Isothermal titration calorimetry with AF9 YEATS domain; assay type: binding
Excerpt: as §1
All ITC titrations were carried out on a MicroCal ITC200 calorimeter (Malvern Instruments Ltd., Malvern, UK) at 298K. The AF9 YEATS domain protein was dialyzed to 20 mM Tris buffer containing 150 mM NaCl at pH 7.4. The concentration of the protein was determined by UV-Vis spectroscopy. The compounds were dried and dissolved in the same buffer. The concentrations of compounds were determined using quantitative NMR30. The ITC data were analyzed using Origin 2019 and best-fitted to the one-site binding model to determine the enthalpies and affinity constants. The binding entropies were calculated using the Gibbs free energy equation.

ENL YEATS domain = molecular target: T2, ENL YEATS domain (Homo sapiens, UniProt Q03111); test: NMR chemical shift perturbation titration of ENL YEATS; assay type: binding; details: determined by CSPs, read-out: affinity
T2 construct: determined from the dose-dependent chemical shift perturbations of ENL YEATS
T2 sequence (Q03111 1-138 limits assumed): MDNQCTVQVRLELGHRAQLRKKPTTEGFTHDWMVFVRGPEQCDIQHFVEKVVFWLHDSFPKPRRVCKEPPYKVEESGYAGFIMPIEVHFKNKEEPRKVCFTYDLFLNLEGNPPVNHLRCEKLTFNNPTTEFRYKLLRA
Procedure: (§2) It is, therefore, difficult to achieve a high selectivity between AF9 and ENL YEATS domains, as underscored by the similar affinity of compound 10 to both AF9 and ENL (38 ± 6 μM) determined by CSPs (Figure 4C), even though compound 10 represented a new chemotype with a binding mode distinct from that of SGC-iMLLT (Figure 4B). […] Therefore, compound 10 was a dual inhibitor of AF9/ENL YEATS domains.
(§3) Figure 4 Selectivity analysis of AF9 inhibitors among human YEATS domains and antiproliferation activities. (A) Sequence alignment of human YEATS domains. Conserved residues are highlighted, with residues interacting with H3K9ac annotated. (B) Superimposition of AF9 and ENL YEATS domain structures in complex with 10 (carbon atom in magenta) and SGC-iMLLT (PDB code: 6HT1), respectively. The hydrogen bonds are delineated by dashed lines. (C) The binding affinity of 10 determined from the dose-dependent chemical shift perturbations of ENL YEATS. The Kd value with the fitting error is annotated. (D) Chemical shift perturbations of the ^15N-labeled YEATS2 YEATS domain induced by 10. (E) The binding affinity of 10 estimated from best fitting of the dose-dependent chemical shift perturbations of the YEATS2 YEATS domain. (F) Viability of MCF7 and AF9-sensitive HGC-27 cells upon treatment with inhibitors at a single dose of 100 μM. […]

YEATS2 YEATS domain = molecular target: T3, YEATS2 YEATS domain (Homo sapiens, UniProt Q9ULM3); test: NMR chemical shift perturbation titration of 15N-labeled YEATS2 YEATS domain; assay type: binding
T3 construct: Chemical shift perturbations of the ^15N-labeled YEATS2 YEATS domain induced by 10
T3 sequence (Q9ULM3 200-345 limits assumed): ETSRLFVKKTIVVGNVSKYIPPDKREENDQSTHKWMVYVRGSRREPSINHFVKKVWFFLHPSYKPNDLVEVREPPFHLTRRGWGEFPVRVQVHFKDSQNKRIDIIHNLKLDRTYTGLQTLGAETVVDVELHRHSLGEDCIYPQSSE
Procedure: as §2, §3

NCL-H1975 cells = test: Cell viability, NCL-H1975; assay type: cell-based; details: single dose of 100 μM; AF9-sensitive cell line
MCF7 cells = test: Cell Counting Kit-8 (CCK-8) cell viability assay, MCF7; details: single dose of 100 μM
Procedure: (§4) We further assessed the cellular activity of these inhibitors in cancer cells.
(§5) Human MCF7 and HGC-27 cell lines were cultured at 37 °C in a humidified 5% CO2 atmosphere in DMEM (Gibco, Stony Plain, AB, Canada) medium supplemented with 10% fetal bovine serum (FBS) (Gibco) and 1 × penicillin/streptomycin (Gibco). MCF7 and HGC-27 cells were seeded in 96-well plates with approximately 10^4 cells in 100 μL of the medium and treated with the following conditions: fresh culture medium with DMSO (control) or fresh culture medium with inhibitors at a concentration of 100 μM. Cell viability was measured using a Cell Counting Kit-8 (Purchased from TargetMol, Boston, MA, USA) according to manufacturer’s instructions [45]. The absorbance was read at 450 nm with a microplate reader (CLARIOstar, BMG LABTECH, Ortenberg, Germany). Cell viability was calculated as the ratio of experimental group absorbance vs. control group absorbance.

HGC-27 cells = test: Cell Counting Kit-8 (CCK-8) cell viability assay, HGC-27; details: AF9-sensitive HGC-27 cells
Procedure: as §4, §5

MCF7 = test system: MCF7; set-up: method as in PMID 30288907; details: cited from earlier work
[3] = test system: the rest of the 59 cell lines; set-up: method as in PMID 30288907; details: cited from earlier work

Row | Compound | Kd (AF9 YEATS domain [1]) | LE (AF9 YEATS domain [1]) | further results
1 | COCC(=O)Nc1ccc(C)c(N)c1 [Compound 1] | 137 ± 24 µM | 0.38 | 
2 | COCC(=O)Nc1ccc(Cl)c(N)c1 [Compound 2] | 70 ± 10 µM | 0.41 | ΔH (AF9 YEATS domain [2]; ITC binding enthalpy): -10 ± 2 kcal/mol; Kd (AF9 YEATS domain [2]; ITC, 1:1 binding mode, 298K): 76 ± 10 µM; -TΔS (AF9 YEATS domain [2]; ITC, entropy calculated using the Gibbs free energy equation): 4 kcal/mol
3 | COCC(=O)Nc1ccc(N)cc1Cl [Compound 3] | 100 ± 10 µM | 0.39 | 
4 | COCC(=O)Nc1ccc(N)cc1C [Compound 4] | 440 ± 100 µM | 0.33 | 
5 | COCC(=O)Nc1ccc(Cl)c(O)c1 [Compound 6] | 61 ± 4 µM | 0.41 | change of affinity (in words) (AF9 YEATS domain [1]; relative to hit 2): did not significantly alter the affinity
6 | CNC(=O)Cc1ccc(NC(=O)COC)cc1 [Compound 7] | 270 ± 20 µM | 0.29 | 
7 | COCC(=O)Nc1ccc(CNC(C)=O)cc1 [Compound 8] | 310 ± 4 µM |  | 
8 | CNCC(=O)Nc1ccc(CNC(C)=O)cc1 [Compound 9] | 660 ± 70 µM | 0.26 | 
9 | C[C@H]1CCCN1Cc1nc2cc(NC(=O)c3ccc4c(cnn4C)c3)ccc2[nH]1 [SGC-iMLLT] |  |  | potency in MCF7 (in words) (MCF7): weak potency; activities over the rest of the 59 cell lines (in words) [3]: almost no detectable activities

Further lines, with some results ahead:

Row | Kd (AF9 YEATS domain [1]) | LE (AF9 YEATS domain [1]) | Compound | further results
10 | 80 ± 60 µM | 0.43 | COCC(=O)Nc1ccc(Cl)cc1 [Compound 5] | change of affinity (in words) (AF9 YEATS domain [1]; relative to hit 2): did not significantly alter the affinity
11 | 38 ± 6 µM |  | O=C(COCc1ccccc1)Nc1ccc(Cl)cc1 [Compound 10] | enhancement of the affinity for the AF9 YEATS domain (AF9 YEATS domain [1]; relative to hit 2): approximately two-fold enhancement; Kd (ENL YEATS domain): 38 ± 6 µM; binding affinity (in words) (YEATS2 YEATS domain; chemical shift of YEATS2 only slightly disturbed): very weak binding affinity; Kd (YEATS2 YEATS domain; estimated from best fitting of dose-dependent chemical shift perturbations): > 200 µM; effect on NCL-H1975 cells (in words) (NCL-H1975 cells): demonstrated inhibitory effects; potency in MCF7 cells (in words) (MCF7 cells): weak potency; proliferation of HGC-27 cells (in words) (HGC-27 cells): suppressed the proliferation of AF9-sensitive HGC-27 cells more effectively in a dose-dependent manner
12 | 88 ± 30 µM | 0.31 | O=C(COc1ccccc1)Nc1ccc(Cl)cc1 [Compound 11] | 
13 | 87 ± 11 µM | 0.28 | O=C(COCc1ccc(F)cc1)Nc1ccc(Cl)cc1 [Compound 12] | 
14 | 70 ± 9 µM | 0.28 | O=C(COCc1ccccc1O)Nc1ccc(Cl)cc1 [Compound 13] | 
15 | 26 ± 4 µM | 0.30 | O=C(COCc1ccccc1)Nc1c(F)cc(Cl)cc1F [Compound 14] | affinity enhancement relative to that of 10 (AF9 YEATS domain [1]; AF9 YEATS): approximately 30%
